Laboratory results as given in ChEMBL document CHEMBL5215011, “Isolation and Structure Elucidation of Compounds from Sesamum alatum and Their Antiproliferative Activity against Multiple Myeloma Cells” (J Nat Prod, 2022).

Assays:
Format in all cases: functional, cell-based
RPMI-8226 = test: Antiproliferative activity against human RPMI-8226 cells assessed as inhibition of cell proliferation incubated for 72 hrs by XTT assay; details: RPMI-8226, 72 h
MM1.S = test: Antiproliferative activity against human MM1.S cells assessed as inhibition of cell proliferation incubated for 72 hrs by XTT assay
[1] = Antiproliferative activity against human MM1.R cells assessed as inhibition of cell proliferation incubated for 72 hrs by XTT assay; details: MM.1R

| Compound | IC50 (RPMI-8226) [µM] | IC50 (MM1.S) [µM] | IC50 [1] [µM] |
| --- | --- | --- | --- |
| CC(C)C[C@H](NC(=O)[C@H](Cc1ccccc1)NC(=O)c1cnccn1)B(O)O [BORTEZOMIB] | 0.0056 | 0.0032 | 0.0047 |
| CC(C)=CC[C@@H]1C(=O)c2c(O)ccc(O)c2[C@@H]1O | 27.5 | – | – |
| COC1=CC(=O)C=C(OC)C1=O [2,6-DIMETHOXYQUINONE] | 10.8 | 1.1 | 3 |
| CC(C)=CC[C@@]12O[C@@H]1C(=O)c1c(O)ccc(O[C@@H]3O[C@H](CO)[C@@H](O)[C@H](O)[C@H]3O)c1C2=O | 9.5 | 4.8 | 3.6 |
| CC(C)(O)/C=C\C(O)=C1C(=O)c2c(O)ccc(O)c2C1=O | 9.6 | 14.7 | 6.1 |
| CC(C)=CC[C@@]12O[C@@H]1C(O)c1c(O)ccc(O)c1C2=O (stereo partly drawn) | 18.6 | – | – |

Second part, led by results:

| IC50 (RPMI-8226) [µM] | IC50 (MM1.S) [µM] | Compound | IC50 [1] [µM] |
| --- | --- | --- | --- |
| 0.6 | 0.7 | CC(C)=CC[C@@]12O[C@@H]1C(=O)c1c(O)ccc(O)c1C2=O | 0.9 |
| 12.9 | – | CC(C)=CCC1=C(Cl)C(=O)c2c(O)ccc(O)c2C1=O | – |
